The values that follow come from US9889105B2, “In vivo method for treating, inhibiting, and/or prophylaxis of cancer, such as pancreatic cancer” (U.S. Department of Veterans Affairs, priority 2010, dated 2018).

Data set [1] concerns Sonic Hedgehog signaling pathway. The experiment in a line: Western blot of Sonic Hedgehog signaling pathway proteins and target genes. Format: cell-based. The text has this: FIG. 7A illustrates western blots of onic Hedgehog signaling pathways proteins (sonic hedgehog, Gli-1, SUFU, Smoothened with beta-actin) expressions in treated lanes of I (CC), 2 (PC #5), 3 (PC #3) and 4 (PC #1).
FIG. 7B illustrates sonic hedgehog target genes: Patched, p21, cyclin D1 with actin treated by CC (Lane 1) and PC #5 (Lane 2), PC #3 (Lane 3) and PC #1 (Lane 4).
(§1) The immuno-Western blot analyses were the same as described earlier by Banerjee et al. (Reference 26). Briefly, MIA-PaCa-2 and BxPC-3 cells following treatment with or without crocetin and tumor samples were homogenized. Then, both cell and tumor lysates were spun at 18000 g for 1 hr at 4° C., and the supernatants were collected for immunodetection. Protein concentration was measured by using the Comassie blue reagent assay (Pierce, Rockford, Ill.). Equal amount of protein were resolved in 10% SDS-PAGE, transferred onto nitrocellulose membranes. Membranes were blocked with super block (Pierce, Rockford, Ill.) followed by incubation with appropriate primary antibodies at 4° C., overnight. The antigen-antibody reactions were detected with HRP-conjugated anti-rabbit or anti-mouse IgG for one hour in room temperature. Immunoreactions were visualized by the ECL ([…]) chemiluminescence reagent kit (Pierce, Rockford, Ill.) and relative expression of proteins were calculated by densitometric analyses using ID image Analysis Software version 3.6 (Eastman Kodak Company, Rochester, N.Y.).

Data set [2] deals with Akt. The experiment in a line: Western blot of Akt signaling in Panc-1 cells. Format: cell-based, human. As to conditions: 10 mM, listed as PC. The procedure: (§2) FIG. 4B illustrates effect of purified crocetin (PC) and crude crocetin (CC) on EGFR (epidermal growth factor receptor), Akt signaling and Bax/Bcl-2 on Panc-1 cells.
as §1

The test system of data set [3] is Panc-1 cells. The experiment in a line: Migration of Panc-1 cells in Bowden chamber. It is filed as cell-based, human. As to conditions: 1 and 10 μM, 24 hours, compared with CC. The procedure: FIG. 4A illustrates effect of purified crocetin (PC) and crude crocetin (CC) on migration of Panc-1 cells. Panc-1 cells were incubated with PC and CC at concentrations of 1 and 10 μM in Bowden chamber for 24 hours and migration was studied.

The subject of data set [4] is pancreatic CSCs (pancospheres). The experiment in a line: Pancospheroid formation assay. It is filed as cell-based. As to conditions: dose dependent, 0, 1, 5, 10, 20 μM. The procedure: FIG. 7C illustrates spheroid formation assay. Stemness pancreatic cancer cells ware determined using spheroid assay in PC versus CC in different concentrations (0, 1, 5, 10, 20 μM); and
Spheroids were prepared as previously described (Reference 17). Briefly, 1000 cells/well in DMEM/F12 (Invitrogen, France) supplemented with EGF (20 ng/ml, Invitrogen) and B27 (1×, Invitrogen) were distributed in ultra-low attachment plates 6 well plates. Plates were placed in a humidified atmosphere of 5% CO2 at 37° C. Numbers of pancosphers formation, after 6-8 days culture, were counted under a light microscopy and quantified by Celigo software.

In data set [5] the test system is BxPc3 cells. The experiment in a line: Apoptosis assay in BxPC3 cells. Format: cell-based, human. As to conditions: comparison to commercial crocetin. The procedure: FITC Annexin V and PI for flow cytometry provide a rapid and convenient assay for apoptosis. Treated and control cells were incubated with annexin V conjugate and propidium iodide (PI). Then cells were deposited onto slides for fluorescence microscopy. Cells were also used for flow cytometry analysis for live, apoptotic and dead cells using annexin V conjugated to green-fluorescent FITC dye and propidium iodide (PI). Propidium iodide stains necrotic cells with red fluorescence whereas green FITC dye stains apoptotic cells.

In data set [6] the test system is PCNA. The experiment in a line: PCNA histochemical analysis of xenograft tumor tissue. Format: in vivo, athymic (nude) mice. As to conditions: versus untreated. The procedure:
FIG. 6A illustrates expression of PCNA (proliferating cell nuclear antigen). Cell proliferation in tumor tissues, obtained from athymic mice as depicted in FIG. 5, was evaluated by staining for PCNA using histochemical analysis.
Immunohistochemical analysis was performed according to our previous described method (27) using Zymed broad range immunohistochemical kits (Zymed Laboratories, CA). Tumor tissue samples were fixed in 4% buffered formalin and embedded in paraffin. The serial sections of 5 μm were cut. The tissue sections were deparaffinized and were hydrated in different concentrations of ethanol (i.e. 100%, 90%, 70%, and 50%). Endogenous peroxidase activity was blocked at room temperature by incubating in hydrogen peroxide in methanol (1:9). Slides were washed with PBS (phosphate buffered saline) and nonspecific binding was blocked by blocking solution for 10 min. The sections were incubated with respective primary antibody in a humidified chamber at 4° C. overnight. The tissues were incubated with biotynylated secondary antibody (Zymed kit). The slides were then incubated with HRP (horseradish peroxidase) linked enzyme conjugate for 10 min. Positive reactions were visualized by incubating slides with stable 3,3′-diaminobenzidine (DAB) solution (Zymed kit) and counterstained with haematoxylin. The slides were dehydrated and mounted in permount for microscopic examination.

Data set [7] concerns human cells. The following applies: cited from earlier work.
Data set [8] deals with Bax/Bcl-2. The experiment in a line: Western blot of Bax/Bcl-2 in Panc-1 cells. Format: cell-based, human. The following applies: Panc-1, Western blot. The procedure:
as §2, §1

The test system of data set [9] is MIA-PaCa-2 xenograft tumor. The experiment in a line: Apoptosis in xenograft tumors (cleaved caspase 3, TUNEL, Bax/Bcl-2). As to conditions: daily treatment, versus vehicle. Format: in vivo, athymic (nude) mice. The procedure: FIG. 6C illustrates apoptosis. Top, tumor tissues were processed for Cleaved Caspase 3 immunohistochemistry. […] Caspase 3, Bax and Bcl-2 (middle) expressions of pancreatic tumors from same crocetinic acid-treated and control animals using Western Blot were carried out and Bax/Bcl-2 ratio was also determined (bottom). Columns, mean from six different animals; bars, SD (B and C). *, P<0.05; **, P<0.001 versus untreated control (Student's t test);
To explore whether the regression of tumor growth by crocetin is due to inhibition of proliferation, apoptotic cell death or both, we first evaluated PCNA (proliferating cell nuclear antigen) expression and then EGFR expression in tumors using histochemical analysis. […] Next, apoptosis by TUNEL assay was investigated in the tumors of mice treated with or without crocetin.

[10] abbreviates: in comparison to commercial crocetin.

The structures appear in SMILES notation.

Consider `CC(C=CC=C(C)C(=O)O)=CC=CC=C(C)C=CC=C(C)C(=O)O` [crocetinic acid], for which, in data set [1] (Western blot), the Gli1 expression result was “inhibited”, the SUFU expression result was “inhibited” and the smoothened expression entry is listed as “inhibited”. Also, the “cyclin D1 expression” value in [1] (Western blot, target protein) is “inhibited”. In data set [1] (setting [10]), the patched expression entry is “increased expression” and the “sonic hedgehog (Shh) expression” value is listed as “significantly inhibited”. In addition, in [1] (in comparison to commercial crocetin, listed as 5), the patched expression entry is given as “increased”. In addition, the “Akt expression and phosphorylation” value in [2] was “significantly inhibited”. The migration entry in data set [3] is recorded as “significantly inhibited”. Also, the “number and size of primary and secondary pancospheres (spheroid formation)” value in data set [4] is on record as “decreased”. Besides, the “number and size of primary and secondary pancospheres (spheroid formation)” value in data set [4] (listed as #5) was “significant inhibition”. In addition, the stimulation of apoptosis entry in data set [5] is on record as “stimulated apoptosis”. Besides, the “PCNA expression in tumors” value in [6] was “significantly decreased”. Besides, the “toxicity to human cells” value in [7] is “relatively nontoxic”. Further, in [8], the Bax/Bcl-2 ratio entry is given as “increase” and the Bcl-2 entry is given as “decrease”. For the same compound, in data set [9], the “apoptosis by cleaved caspase 3 immunohistochemistry in tumors” value is “Increased apoptosis”.
